Data from article PMC6021345 (Oncotarget, 2018).

Tests used:
[1] = target: T1, CES2 (Homo sapiens, UniProt O00748); experiment: In vitro CES2 enzyme-based assay (4-NPA substrate); format: biochemical
T1 construct: purchased Sigma-Aldrich E0412
T1 sequence (O00748 27-559): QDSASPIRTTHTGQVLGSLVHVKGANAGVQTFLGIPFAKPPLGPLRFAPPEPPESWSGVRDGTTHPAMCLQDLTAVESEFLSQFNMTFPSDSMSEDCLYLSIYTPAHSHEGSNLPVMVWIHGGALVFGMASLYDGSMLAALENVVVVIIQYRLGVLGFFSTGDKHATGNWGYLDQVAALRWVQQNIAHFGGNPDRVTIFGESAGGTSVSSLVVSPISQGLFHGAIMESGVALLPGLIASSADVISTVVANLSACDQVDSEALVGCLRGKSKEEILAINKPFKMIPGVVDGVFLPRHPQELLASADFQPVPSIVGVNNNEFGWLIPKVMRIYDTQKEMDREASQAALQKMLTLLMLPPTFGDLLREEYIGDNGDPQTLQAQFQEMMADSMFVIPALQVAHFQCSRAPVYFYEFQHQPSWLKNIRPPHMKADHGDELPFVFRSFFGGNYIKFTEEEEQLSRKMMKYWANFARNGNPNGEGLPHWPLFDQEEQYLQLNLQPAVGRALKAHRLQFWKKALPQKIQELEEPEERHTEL
Protocol: (§1) The recombinant purified CES2 and CES1 enzymes, and 4-NPA were purchased from Sigma-Aldrich with product IDs E0412, E0162, and N8130, respectively. […] All compounds were dissolved in DMSO at 10mM. In the screening assay, the compounds were diluted in 50mM HEPES and the final compound concentration in the reaction system was adjusted to 50μM. […] The assays were conducted at 300μl total volume in 96-well plates. Reactions consisted of the following: 100μL 50mM HEPES with 20 units of enzyme, 10μL compound solution (various concentrations), 2μL 300mM 4-NAP, and 188μL 50mM HEPES, pH 7.4. The compound and 4-NAP solution were added into the plate first and then the reaction was initiated by the addition of enzyme solution. After 15 minutes incubation at 25°C, absorbance was measured using a microplate reader at 405nm in FLUOstar Omega Microplate Reader. The CES1/CES2 inhibitor compound bis-(4-nitrophenyl) phosphate (BNPP) was used as positive control in all the assays.

[2] = target: T2, CES1 (Homo sapiens, UniProt P23141); experiment: In vitro CES1 enzyme-based assay (4-NPA substrate); format: biochemical; conditions: even at 300μM
T2 construct: purchased Sigma-Aldrich E0162
T2 sequence (P23141 18-567): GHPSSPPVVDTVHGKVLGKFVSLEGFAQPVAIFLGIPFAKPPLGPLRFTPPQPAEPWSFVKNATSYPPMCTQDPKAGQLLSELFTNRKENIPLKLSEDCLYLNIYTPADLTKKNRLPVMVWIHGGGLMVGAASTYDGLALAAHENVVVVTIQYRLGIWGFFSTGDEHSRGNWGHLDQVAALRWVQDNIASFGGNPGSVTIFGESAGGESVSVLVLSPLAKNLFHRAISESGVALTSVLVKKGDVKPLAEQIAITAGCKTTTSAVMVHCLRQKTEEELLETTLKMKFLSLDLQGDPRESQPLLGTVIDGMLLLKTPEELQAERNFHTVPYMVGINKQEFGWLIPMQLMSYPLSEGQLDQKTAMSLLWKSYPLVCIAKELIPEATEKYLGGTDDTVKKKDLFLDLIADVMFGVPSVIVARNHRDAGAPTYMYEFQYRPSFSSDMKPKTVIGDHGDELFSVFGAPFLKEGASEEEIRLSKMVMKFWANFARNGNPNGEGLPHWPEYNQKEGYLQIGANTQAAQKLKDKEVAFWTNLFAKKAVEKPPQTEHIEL
Protocol: as §1

[3] = test system: murine CT-26 tumor-bearing immuno-competent mice; experiment: CPT-11 induced diarrhea in CT-26 tumor-bearing mice; format: in vivo
Protocol: We tested the effect of Hst (20 and 100 mg/kg) on murine CT-26 tumor-bearing immuno-competent mice with CPT-11 (50 mg/kg, roughly equivalent to 5 mg/kg typical human CPT-11 dose) intraperitoneally injected daily from day 1-9. Hst was given from day 1-15 and 30 min before CPT-11 administration on day 1-9. Changes of stool character were recorded twice daily to determine the severity of diarrhea. Fecal staining of skin or lose watery stool was determined as diarrhea but not severe, and only the black sticky stool (bloody diarrhea) was determined as severe diarrhea.
CT-26 cell line was used to make the tumor bearing mouse model by s.c. injection of 0.02mL cells in PBS at 5×10^7 cells/mL into the posterior mid-dorsum. Tumor volumes were estimated by the formula π/6×a^2×b, where a is the short and b is the long axis. When tumor volume reached roughly 100mm^3 (~10 days after implantation, defined as day 1), mice were randomly separated into 5 groups, 1). CPT-11 only group, receiving CPT-11 50mg/kg + vehicle 2). CPT-11+Hst 20mg/kg, 3). CPT-11+Hst 100mg/kg, 4). Hst 100mg/kg only, and 5) vehicle control group. CPT-11 was administrated by i.p. injection from day 1 to day 9 while Hst were administrated by oral gavage from day 1 to the end of study. An equivalent dosage of saline or CMC were administrated by i.p injection and oral gavage as vehicle, respectively. Mice were examined daily for signs of diarrhea (fecal staining of skin, lose watery stool) and bloody diarrhea (black sticky stool), as well as tumor growth. After sacrifice, jejunum, ileum and colon samples were dissected. Tissues were formalin-fixed and paraffin embedded for histological examination using 4μm-thick, 100μm step serial sections stained with H&E. A histologic score to evaluate inflammation, epithelial changes and mucosa architecture for each slide was calculated as described previously. For immunohistochemical staining, sections were stained with antibodies against Ki67, β-catenin, F4/80, Ly-6B.2 and pSTAT3 (Tyr705) overnight at 4°C. Slides were then washed and stained with the appropriate secondary antibodies. Mounted slides were examined under Olympus BX61 upright microscopy (HMRI Advanced Cellular and Tissue Microscope Core Facility).

[4] = parameters: method as in PMID 10725311; conditions: after i.v. dosing radiolabeled drug; cited from earlier work
[5] = parameters: method as in printed; conditions: library annotation; ref not given; cited from earlier work
[6] = parameters: method as in printed; conditions: ref not given; cited from earlier work
[7] = parameters: method as in printed; conditions: high dose loperamide; ref not given; cited from earlier work

SMILES: O=C(/C=C/c1ccccc1)c1ccc(O)cc1O [2’, 4’-dihydroxychalcone]
- selectivity for CES2 (over CES1) ([1]; CES2 vs CES1): > 100 fold
- IC50 ([1]; recombinant CES2, 4-NPA, 15 min, 25°C): 1660 ± 690 nM
- CES1 inhibition [2]: no significant CES1 inhibition

SMILES: CCc1c2c(nc3ccc(OC(=O)N4CCC(N5CCCCC5)CC4)cc13)-c1cc3c(c(=O)n1C2)COC(=O)[C@]3(O)CC [CPT-11, irinotecan]
- mice that had to be euthanized ([3]; CPT-11 only group, by day 12): all
- mice that developed some degree of diarrhea ([3]; mouse, in vivo, 15 day): 100%
- fraction found unchanged in human bile [4]: 30%

SMILES: CC1(C)CCC2=C(O1)c1ccccc1C(=O)C2=O [compound 1004, beta-Lapachone]
- solubility remark [5]: poorly soluble, anti-tumor at mM level, combination and radiosensitizing activity

SMILES: COc1ccc([C@@H]2CC(=O)c3c(O)cc(O[C@@H]4O[C@H](CO[C@@H]5O[C@@H](C)[C@H](O)[C@@H](O)[C@H]5O)[C@@H](O)[C@H](O)[C@H]4O)cc3O2)cc1O [hesperidin]
- fraction metabolized in cells to generate Hst [6]: 99%

SMILES: CN(C)C(=O)C(CCN1CCC(O)(c2ccc(Cl)cc2)CC1)(c1ccccc1)c1ccccc1 [loperamide]
- incidence of grade 3-4 diarrheas [7]: 28-40 % of treated patients
